Read-outs that look alike come from different tables or passages of the source. One block for each compound: values may come before it.
How the values were obtained:
[1] = system: renal function in anesthetized rats; conditions: for Na+ excretion / free water clearance / urine flow rate / urine osmolality: anesthetized rats; for glomerular filtration rate (GFR): rat, in vivo
Protocol: NaCl reabsorption in the thick ascending limb of the Loop of Henle (TALH) creates free water that is reabsorbed in the collecting duct in the presence of vasopressin. […] Either V (3 mg/kg), F (5 mg/kg), both V and F (V/F) or the vehicles were administered intraduodenally.

[2] = Human single dose crossover drug interaction study, pharmacokinetics; type: in vivo
Protocol: (§1) The study lasted approximately 30 days, and included a pre-enrollment evaluation of up to 2 weeks before dose administration, and three 2-day (2-night) confinement periods. The doses were separated by at least a 1 week interval. The clinical portion of the study was completed in approximately 2 months.
(§2) The VPA-985 suspension (25 mg and 50 mg powder reconstituted) was administered in 150 mL of Sprite® brand lemon-lime soda (a product of The Coca-Cola Company) followed by 100 mL of room-temperature water (250 mL of fluid total).
(§3) Areas under concentration-time curves(AUCT) (AUC) and AUC truncated at the last observed concentration (CT)AUCT) were determined by using the linear/log trapezoidal method. Statistical comparisons were made using by an analysis of variance (ANOVA). Confidence limits (90%) for pharmacokinetic parameters were constructed on a log scale using the two one-sided tests procedure. An interaction was judged to be significant if a 35% difference was detected between either single agent and the two drugs administered concomitantly.

healthy men = assay: Human single dose crossover drug interaction study, pharmacodynamics (urine flow, electrolytes); type: in vivo; conditions: for mean urine volume: 0 to 4 h interval, single oral doses VPA-985 75 mg; for mean urine volume / peak urine flow: furosemide 40 mg, or both; for peak urine flow: single oral doses: VPA-985 75 mg
Protocol: as §1, §2, §3

[3] = after intraduodenal administration (V 3 mg/kg, F 5 mg/kg)
[4] = baseline, before compound administration
[5] = VPA-985 75 mg administered with furosemide 40 mg
[6] = after coadministration with VPA-985 75 mg

glomerular filtration rate (GFR) [1]: 2.04 ± 0.15 mL/min | AUCs of VPA-985, compared to VPA-985 alone [2, 5]: no differences | Cmax of VPA-985, compared to VPA-985 alone [2, 5]: no differences | AUC ([2]; male, human, in vivo, single oral dose VPA-985 75-mg suspension alone, healthy men): 968 ng·h/mL | Cmax ([2]; male, human, in vivo, single oral dose VPA-985 75-mg suspension alone, healthy men, read-out: mean peak concentration (Cmax) of VPA-985): 617 ng/mL | Tmax ([2]; male, human, in vivo, single oral dose VPA-985 75-mg suspension alone, healthy men, read-out: mean time of peak concentration (tmax) of VPA-985): < 1 h | effect on serum potassium (healthy men; single oral dose VPA-985 75 mg alone): did not alter
SMILES: Cc1ccc(F)cc1C(=O)Nc1ccc(C(=O)N2Cc3cccn3Cc3ccccc32)c(Cl)c1 [VPA-985, N-[4-(5H-pyrrolo[2,1-c][1,4]benzodiazepin-10(11H)ylcarbonyl)-3-chlorophenyl]-5-fluoro-2-methyl-benzamide]
Na+ excretion [1, 3]: 0.67±0.34 μEq/min | free water clearance [1, 3]: -6.96 ± 5.17 µL/min | urine flow rate [1, 3]: 19.51 ± 3.80 µL/min | urine osmolality [1, 3]: 571±145 mOsm/kg | Na+ excretion [1, 4]: 0.10±0.02 μEq/min | free water clearance [1, 4]: -17.31 ± 1.84 µL/min | urine flow rate [1, 4]: 5.26 ± 1.13 µL/min | urine osmolality [1, 4]: 1456±166 mOsm/kg | mean urine volume (healthy men): 1157 mL | increase in mean serum sodium (healthy men; 0 to 4 hours after the dose): 2 mmol/L | 0 to 4 h urinary excretion of sodium, potassium, chloride and magnesium (healthy men; VPA-985 alone compared with VPA-985 and furosemide administered concomitantly): significantly less | tmax of peak effect in urine flow (healthy men; after administration of single doses, healthy men): approximately 1.5 h | peak urine flow (healthy men; healthy men): 8.4 mL/min

glomerular filtration rate (GFR) [1]: 1.87 ± 0.15 mL/min | CLr of furosemide, versus furosemide alone [2, 6]: no difference | amount of furosemide recovered from urine (Ut), versus furosemide alone [2, 6]: no difference | serum potassium (healthy men; at 0 h): 4.2 mmol/L | serum potassium (healthy men; at 4 hours after the dose): 3.9 mmol/L
SMILES: NS(=O)(=O)c1cc(C(=O)O)c(NCc2ccco2)cc1Cl [furosemide, reference compound]
urine flow rate [1, 3]: 17.02 ± 4.86 µL/min | urine osmolality [1, 3]: 699±69 mOsm/kg | urine flow rate [1, 4]: 3.74 ± 0.18 µL/min | urine osmolality [1, 4]: 1515±96 mOsm/kg | mean urine volume (healthy men): 1524 mL | peak urine flow (healthy men; healthy men): 9.3 mL/min

From patent US6656931B2, “Vasopressin antagonist and diuretic combination” (Wyeth Holdings Corporation, priority 1999, dated 2003)
